Reference: the CheMixHub ionic liquid set

Experiment: xn = mol fraction of the nth substance listed

CC[N+](C)(CC)CCOC.O=S(=O)([N-]S(=O)(=O)C(F)(F)F)C(F)(F)F + O=C1CCCO1
101 kPa
Conditions | electrical conductivity [S/m] | viscosity [mPa·s]
288.15 K, x1 = 0.1004 | 1.07 | 5.77
288.15 K, x1 = 0.2006 | 1.05 | 8.69
288.15 K, x1 = 0.4998 | 0.504 | 39.28
288.15 K, x1 = 0.6002 | 0.42 | 63.7
293.15 K, x1 = 0.1004 | 1.18 | 4.642
293.15 K, x1 = 0.3003 | 0.925 | 12.34
293.15 K, x1 = 0.4998 | 0.589 | 30.79
293.15 K, x1 = 1 | 0.184 | 162.2
298.15 K, x1 = 0.1004 | 1.305 | 3.697
298.15 K, x1 = 0.4007 | 0.841 | 15.12
303.15 K, x1 = 0.6999 | 0.592 | 39.92
303.15 K, x1 = 1 | 0.301 | 89.7
308.15 K, x1 = 0.3003 | 1.28 | 7.61
308.15 K, x1 = 0.4007 | 1.08 | 10.57
308.15 K, x1 = 0.4998 | 0.904 | 15.55
308.15 K, x1 = 0.9003 | 0.463 | 51.6
313.15 K, x1 = 0.1004 | 1.644 | 1.923
313.15 K, x1 = 0.2006 | 1.76 | 3.958
313.15 K, x1 = 0.8001 | 0.676 | 30.48
318.15 K, x1 = 0.6002 | 1.021 | 14.49
323.15 K, x1 = 0.2006 | 2.07 | 2.954
323.15 K, x1 = 0.4007 | 1.5 | 6.43
323.15 K, x1 = 0.4998 | 1.29 | 8.64
323.15 K, x1 = 0.6002 | 1.145 | 11.6
328.15 K, x1 = 0.6002 | 1.28 | 9.45
328.15 K, x1 = 1 | 0.706 | 26.35
333.15 K, x1 = 0.4007 | 1.812 | 4.73
333.15 K, x1 = 1 | 0.816 | 21.31
343.15 K, x1 = 0.3003 | 2.44 | 2.72
343.15 K, x1 = 0.4998 | 1.926 | 4.472
348.15 K, x1 = 0.4007 | 2.346 | 3.095
348.15 K, x1 = 0.6999 | 1.68 | 5.09
348.15 K, x1 = 0.9003 | 1.328 | 9.11
353.15 K, x1 = 0.2006 | 3.09 | 1.361
353.15 K, x1 = 0.3003 | 2.85 | 2.11
353.15 K, x1 = 0.6002 | 2.05 | 3.425
353.15 K, x1 = 0.9003 | 1.46 | 7.16

CCCCCCCCn1cc[n+](C)c1.F[B-](F)(F)F + CCOC(C)=O
298.15 K, 101 kPa
Conditions | viscosity [mPa·s]
x2 = 0.204 | 115.5
x2 = 0.3986 | 41.35
x2 = 0.4461 | 31.64
x2 = 0.5984 | 12.72
x2 = 0.624 | 10.93
x2 = 0.8017 | 3.1
x2 = 0.953 | 0.74

CC(C)O + CC[n+]1ccn(CCOC)c1.N#C[S-]
100 kPa, x2 = 0
Conditions | viscosity [mPa·s]
288.15 K | 2.83
293.15 K | 2.42
298.15 K | 2.07
303.15 K | 1.79
308.15 K | 1.552
313.15 K | 1.352
318.15 K | 1.183

CC[N+](C)(CC)CCOC.O=S(=O)([N-]S(=O)(=O)C(F)(F)F)C(F)(F)F + CCCCn1cc[n+](C)c1C.O=S(=O)([N-]S(=O)(=O)C(F)(F)F)C(F)(F)F
100 kPa
Conditions | electrical conductivity [S/m]
293.15 K, x1 = 0.2 | 0.192
293.15 K, x1 = 0.5 | 0.202
298.15 K, x1 = 0.2 | 0.256
313.15 K, x1 = 0.5 | 0.517
313.15 K, x1 = 0.7 | 0.527
318.15 K, x1 = 0.2 | 0.594
323.15 K, x1 = 0.7 | 0.755
328.15 K, x1 = 0.1 | 0.82
328.15 K, x1 = 0.3 | 0.845
328.15 K, x1 = 0.4 | 0.847
333.15 K, x1 = 0.6 | 0.999
343.15 K, x1 = 0.1 | 1.24
343.15 K, x1 = 0.2 | 1.24

CCCCCCCCn1cc[n+](C)c1.F[B-](F)(F)F + CCCCCCCCn1cc[n+](C)c1.[Cl-]
101 kPa
Conditions | electrical conductivity [S/m] | viscosity [mPa·s]
303 K, x2 = 0 | 0.0817 | –
303 K, x2 = 0.8 | 0.00551 | –
303.15 K, x2 = 0 | – | 258
303.15 K, x2 = 0.4 | – | 1093
308 K, x2 = 0.8 | 0.00853 | –
313 K, x2 = 0.6 | 0.0233 | –
318 K, x2 = 0 | 0.172 | –
318 K, x2 = 0.2 | 0.106 | –
318 K, x2 = 0.6 | 0.0327 | –
318.15 K, x2 = 0.8 | – | 1486
323 K, x2 = 0.6 | 0.0452 | –
328 K, x2 = 0.2 | 0.17 | –
333 K, x2 = 0 | 0.322 | –
333.15 K, x2 = 0 | – | 61

CCCC[n+]1ccn(C)c1.[Cl-] + OC[C@H]1O[C@H](O[C@H]2[C@H](O)[C@@H](O)C(O)O[C@@H]2CO)[C@H](O)[C@@H](O)[C@@H]1O + O
298.15 K, 101.3 kPa
Conditions | electrical conductivity [S/m]
x2 = 0, x1 = 8.71e-06 | 0.00583
x2 = 0, x1 = 1.208e-05 | 0.00794
x2 = 0, x1 = 1.485e-05 | 0.00965
x2 = 0, x1 = 1.707e-05 | 0.01101
x2 = 0, x1 = 1.937e-05 | 0.01241
x2 = 0, x1 = 2.164e-05 | 0.0138
x2 = 0, x1 = 2.397e-05 | 0.0152
x2 = 0, x1 = 2.6e-05 | 0.0164
x2 = 0, x1 = 2.824e-05 | 0.0177
x2 = 0, x1 = 3.029e-05 | 0.019
